# Patent publication US20230117470A1, “SUBSTITUTED PYRAZOLE COMPOUNDS AS TOLL RECEPTOR INHIBITORS” (BRISTOL-MYERS SQUIBB COMPANY, priority 2019, published 2023)
# pIC50: −log10 of the molar value.
# Tests used:
# Assay type in all cases: cell-based
# human TLR7 = target: T1, human TLR7 (Homo sapiens, UniProt Q9NYK1); experiment: TLR7 inhibition reporter assay (HEK-Blue cells, SEAP reporter, gardiquimod stimulation); details: HEK-Blue cells overexpressing human TLR7, SEAP reporter, gardiquimod 7.5 μM
# T1 construct: host or cells: HEK-Blue cells
# T1 sequence (Q9NYK1 27-1049): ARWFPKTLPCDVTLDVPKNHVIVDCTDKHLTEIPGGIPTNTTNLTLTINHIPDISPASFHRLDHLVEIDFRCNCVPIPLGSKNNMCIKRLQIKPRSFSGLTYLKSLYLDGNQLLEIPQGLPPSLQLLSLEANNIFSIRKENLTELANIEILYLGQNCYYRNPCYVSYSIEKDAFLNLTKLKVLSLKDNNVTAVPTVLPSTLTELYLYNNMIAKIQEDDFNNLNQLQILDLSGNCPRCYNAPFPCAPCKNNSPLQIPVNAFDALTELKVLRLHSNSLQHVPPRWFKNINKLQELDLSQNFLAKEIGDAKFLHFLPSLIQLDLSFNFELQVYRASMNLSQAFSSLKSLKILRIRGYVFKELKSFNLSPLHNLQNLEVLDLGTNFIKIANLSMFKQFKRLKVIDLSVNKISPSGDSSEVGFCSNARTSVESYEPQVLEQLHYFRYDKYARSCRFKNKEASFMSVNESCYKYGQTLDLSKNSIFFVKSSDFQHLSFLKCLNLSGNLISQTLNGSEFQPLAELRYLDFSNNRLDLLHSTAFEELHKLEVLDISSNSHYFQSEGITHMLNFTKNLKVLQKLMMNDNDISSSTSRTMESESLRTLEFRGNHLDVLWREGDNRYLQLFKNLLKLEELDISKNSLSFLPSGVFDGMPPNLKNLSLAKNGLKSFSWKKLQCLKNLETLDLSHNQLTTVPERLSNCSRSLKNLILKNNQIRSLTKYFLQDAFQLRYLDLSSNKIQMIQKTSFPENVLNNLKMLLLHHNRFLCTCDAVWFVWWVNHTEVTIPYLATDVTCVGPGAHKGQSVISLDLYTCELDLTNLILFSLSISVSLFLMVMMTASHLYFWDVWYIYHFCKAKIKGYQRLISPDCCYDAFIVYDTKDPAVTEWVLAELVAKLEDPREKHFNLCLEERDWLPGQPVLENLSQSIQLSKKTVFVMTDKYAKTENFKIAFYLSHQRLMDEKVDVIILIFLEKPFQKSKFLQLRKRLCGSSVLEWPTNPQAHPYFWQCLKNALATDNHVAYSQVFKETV
# Outline: (§1)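 30 min RT cpd pre-incubation (0.05 nM–50 μM final dose response) → agonist: gardiquimod 7.5 μM / R848 15.9 μM / ODN2006 5 nM for TLR7/8/9 resp. → 22 h, 37° C → SEAP via detection medium. % inhibition vs agonist+DMSO and reference inhibitor controls.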
# human TLR8 = target: T2, human TLR8 (Homo sapiens, UniProt Q9NR97); experiment: TLR8 inhibition reporter assay (HEK-Blue cells, SEAP reporter, R848 stimulation); details: HEK-Blue cells overexpressing human TLR8, SEAP reporter, R848 15.9 μM
# T2 construct: host or cells: HEK-Blue cells
# T2 sequence (Q9NR97 27-1041): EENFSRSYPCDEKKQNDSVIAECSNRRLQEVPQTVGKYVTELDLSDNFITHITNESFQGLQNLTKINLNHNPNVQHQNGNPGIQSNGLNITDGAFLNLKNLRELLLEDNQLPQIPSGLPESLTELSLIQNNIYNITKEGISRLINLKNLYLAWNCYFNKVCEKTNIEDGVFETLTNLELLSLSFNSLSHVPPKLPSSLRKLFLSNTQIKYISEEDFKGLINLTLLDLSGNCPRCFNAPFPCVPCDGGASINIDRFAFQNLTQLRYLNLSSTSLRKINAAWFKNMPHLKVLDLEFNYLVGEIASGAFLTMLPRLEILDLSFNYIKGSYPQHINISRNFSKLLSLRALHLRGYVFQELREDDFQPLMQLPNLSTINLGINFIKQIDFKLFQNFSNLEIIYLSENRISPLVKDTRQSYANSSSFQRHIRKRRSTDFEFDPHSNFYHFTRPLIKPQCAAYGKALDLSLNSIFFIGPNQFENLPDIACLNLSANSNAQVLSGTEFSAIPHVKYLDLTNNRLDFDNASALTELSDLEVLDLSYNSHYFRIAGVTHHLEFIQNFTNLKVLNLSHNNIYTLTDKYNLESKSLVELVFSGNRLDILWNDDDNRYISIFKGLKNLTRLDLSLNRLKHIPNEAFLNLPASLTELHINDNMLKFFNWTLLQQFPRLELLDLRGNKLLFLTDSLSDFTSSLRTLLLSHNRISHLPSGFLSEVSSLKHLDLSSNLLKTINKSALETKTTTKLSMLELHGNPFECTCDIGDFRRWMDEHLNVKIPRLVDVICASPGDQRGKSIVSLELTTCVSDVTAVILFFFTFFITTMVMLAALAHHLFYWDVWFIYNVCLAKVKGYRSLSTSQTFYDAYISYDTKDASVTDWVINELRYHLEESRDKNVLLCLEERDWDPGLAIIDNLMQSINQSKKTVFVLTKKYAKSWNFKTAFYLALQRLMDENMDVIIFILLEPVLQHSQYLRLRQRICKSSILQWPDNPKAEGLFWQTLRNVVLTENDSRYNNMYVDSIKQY
# Outline: as §1
# human TLR9 = target: T3, human TLR9 (Homo sapiens, UniProt Q9NR96); experiment: TLR9 inhibition reporter assay (HEK-Blue cells, SEAP reporter, ODN2006 stimulation); details: HEK-Blue cells overexpressing human TLR9, SEAP reporter, ODN2006 5 nM
# T3 construct: host or cells: HEK-Blue cells
# T3 sequence (Q9NR96 26-1032): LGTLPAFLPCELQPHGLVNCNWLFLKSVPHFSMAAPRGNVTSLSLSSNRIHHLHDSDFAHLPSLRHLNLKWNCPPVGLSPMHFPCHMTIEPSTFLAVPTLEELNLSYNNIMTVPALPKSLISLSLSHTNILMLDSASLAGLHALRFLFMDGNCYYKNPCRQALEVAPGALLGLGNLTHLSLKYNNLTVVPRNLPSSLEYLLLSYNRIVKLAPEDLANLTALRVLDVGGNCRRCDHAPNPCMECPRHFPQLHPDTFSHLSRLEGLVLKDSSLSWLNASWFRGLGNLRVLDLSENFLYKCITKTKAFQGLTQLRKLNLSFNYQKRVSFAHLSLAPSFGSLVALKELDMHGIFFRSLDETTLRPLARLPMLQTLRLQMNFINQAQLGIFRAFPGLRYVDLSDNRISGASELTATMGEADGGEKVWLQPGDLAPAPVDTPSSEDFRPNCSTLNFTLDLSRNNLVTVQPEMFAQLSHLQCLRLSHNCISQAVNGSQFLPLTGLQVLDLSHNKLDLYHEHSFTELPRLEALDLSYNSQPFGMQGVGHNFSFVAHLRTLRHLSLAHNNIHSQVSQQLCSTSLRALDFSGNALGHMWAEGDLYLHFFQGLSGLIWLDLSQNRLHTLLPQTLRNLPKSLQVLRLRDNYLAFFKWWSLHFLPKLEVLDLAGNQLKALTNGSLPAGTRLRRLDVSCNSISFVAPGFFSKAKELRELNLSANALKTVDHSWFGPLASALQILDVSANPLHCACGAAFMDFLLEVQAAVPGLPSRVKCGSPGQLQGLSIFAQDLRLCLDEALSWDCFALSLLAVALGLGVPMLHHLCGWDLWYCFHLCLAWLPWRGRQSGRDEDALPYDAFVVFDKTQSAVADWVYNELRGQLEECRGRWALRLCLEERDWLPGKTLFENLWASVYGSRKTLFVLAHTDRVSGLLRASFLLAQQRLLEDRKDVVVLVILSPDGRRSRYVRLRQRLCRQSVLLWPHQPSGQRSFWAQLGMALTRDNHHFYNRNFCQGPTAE
# Outline: as §1
pIC50 (human TLR7),pIC50 (human TLR8),pIC50 (human TLR9),Compound
8.91,8.32,5.14,Cc1cc(-c2[nH]nc(C(=O)NC3CCN(CC4CCOC4)CC3)c2C(C)C)cn2ncnc12 (stereo not drawn) [Example 72]
6.86,6.91,< 4.30,Cc1cc(-c2[nH]nc(-c3ccc4c(c3)CCN(CC(N)=O)C4)c2C(C)C)cn2ncnc12 [Example 272]
7.63,8.51,< 4.30,COc1cc(-c2[nH]nc(-c3cnc(C4CCNCC4)cn3)c2C(C)C)cn2ncnc12 [Example 345]
8.40,8.09,5.17,Cc1cc(-c2[nH]nc(C(=O)N[C@H]3CC[C@@H](N(CCC(C)C)CCC(C)C)CC3)c2C(C)C)cn2ncnc12 [Example 91]
9.00,9.28,4.70,"Cc1cc(-c2[nH]nc(C3CCN(C(=O)CCN(C)C)CC3)c2C(C)C)cn2ncnc12 [Example 208, 3-(dimethylamino)-1-(4-(4-isopropyl-5-(8-methyl-[1,2,4]triazolo[1,5-a]pyridin-6-yl)-1H-pyrazol-3-yl)piperidin-1-yl)propan-1-one]"
8.87,7.73,4.59,Cc1cc(-c2[nH]nc(-c3cnc(N(C)C)cn3)c2C(C)C)cn2ncnc12 [Example 236]
8.45,8.43,5.28,Cc1c(C(=O)NC2CCN(C)CC2)n[nH]c1-c1cc(C)c2ncnn2c1 [compound 180]
9.24,9.96,5.60,Cc1cc(-c2[nH]nc(C(=O)N[C@H]3CC[C@H](N)CC3)c2C(C)C)cn2ncnc12 [Example 46]
8.90,9.14,5.30,"Cc1cc(-c2[nH]nc(C3CCC(NCC4(C)COC4)CC3)c2C(C)C)cn2ncnc12 (single isomer, unassigned) [Example 280]"
8.84,9.37,4.72,CCN1CCC(c2ccc(-c3n[nH]c(-c4cc(C)c5ncnn5c4)c3C(C)C)cc2)CC1 [Example 310]
8.23,8.35,4.37,Cc1cc(-c2[nH]nc(-c3ccc4c(c3)CCN(C3COC3)C4)c2C(C)C)cn2ncnc12 [Example 247]
8.91,8.89,4.79,Cc1cc(-c2[nH]nc(C(=O)NCC3CN(C)CCO3)c2C(C)C)cn2ncnc12 (stereo not drawn) [Example 134]
8.70,8.90,5.48,Cc1cc(-c2[nH]nc(C(=O)N[C@H]3CC[C@H](NC(C)C(C)C)CC3)c2C(C)C)cn2ncnc12 (stereo partly drawn) [Example 118]
8.30,8.66,5.53,COc1cc(-c2[nH]nc(C(=O)NC3CCN(C4CCN(C(C)C)CC4)CC3)c2CC(F)(F)F)cn2ncnc12 [Example 199]
7.30,6.77,4.43,"COc1cc(-c2[nH]nc(-c3ccc(C4CCN(CC(=O)N(C)C)CC4)cn3)c2C(C)C)cn2ncnc12 [Example 389, 2-(4-(6-(4-isopropyl-5-(8-methoxy-[1,2,4]triazolo[1,5-a]pyridin-6-yl)-1H-pyrazol-3-yl)pyridin-3-yl)piperidin-1-yl)-N,N-dimethylacetamide]"
8.80,8.99,5.06,Cc1cc(-c2[nH]nc(C(=O)NC[C@@H]3CCCN3)c2C(C)C)cn2ncnc12 [Example 51]
8.20,8.92,4.70,CCN1CCc2nc(-c3n[nH]c(-c4cc(C)c5ncnn5c4)c3C(C)C)ncc2C1 [Example 249]
8.18,8.63,4.67,"CNC(=O)CN1CCC(NC(=O)c2n[nH]c(-c3cc(OC)c4ncnn4c3)c2CC(F)(F)F)CC1 [Example 205, 5-(8-methoxy-[1,2,4]triazolo[1,5-a]pyridin-6-yl)-N-(1-(2-(methylamino)-2-oxoethyl)piperidin-4-yl)-4-(2,2,2-trifluoroethyl)-1H-pyrazole-3-carboxamide]"
8.83,7.72,5.39,Cc1cc(-c2[nH]nc(C(=O)N[C@H]3CC[C@@H](NCC(C)(C)C)CC3)c2C(C)C)cn2ncnc12 [Example 89]
7.41,6.58,6.19,Cc1cc(-c2[nH]nc(C(=O)NC3CCOCC3)c2C(C)C)cn2ncnc12 [Example 28]
8.16,8.31,4.82,Cc1cc(-c2[nH]nc(-c3nc4c(s3)CN(CC(C)C)CC4)c2C(C)C)cn2ncnc12 [Example 255]
8.80,7.69,5.03,Cc1cc(-c2[nH]nc(C(=O)N[C@H]3CCCN(C(C)C)C3)c2C(C)C)cn2ncnc12 [Example 163]
7.09,7.46,4.38,Cc1cc(-c2[nH]nc(-c3ccc(C4CCN(CC(C)(C)C)CC4)cn3)c2C(C)C)cn2ncnc12 [Example 373]
